Source: PubChem BioAssay (NCI)
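Assay format: 96-well plates, 48-hour exposure. Definition used: TGI = concentration required for complete inhibition of growth.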

Tests used:
Assay in all cases: DTP human tumour cell line panel, 48 h
SNB-19 CNS = system: SNB-19 CNS
SW-620 colon = system: SW-620 colon
OVCAR-8 ovarian = system: OVCAR-8 ovarian
SR leukemia = system: SR leukemia
NCI-H226 lung = system: NCI-H226 lung
SF-295 CNS = system: SF-295 CNS
MCF7 breast = system: MCF7 breast
NCI-H522 lung = system: NCI-H522 lung
EKVX NSCLC = system: EKVX NSCLC
UACC-62 melanoma = system: UACC-62 melanoma
SN12C renal = system: SN12C renal
U251 CNS = system: U251 CNS
ACHN renal = system: ACHN renal
HL-60(TB) leukemia = system: HL-60(TB) leukemia
UO-31 renal = system: UO-31 renal
HCT-15 colon = system: HCT-15 colon
CAKI-1 renal = system: CAKI-1 renal
OVCAR-3 ovarian = system: OVCAR-3 ovarian
HCC-2998 colon = system: HCC-2998 colon
RXF 393 renal = system: RXF 393 renal
MOLT-4 leukemia = system: MOLT-4 leukemia
SK-MEL-2 melanoma = system: SK-MEL-2 melanoma
NCI-H23 lung = system: NCI-H23 lung
SF-268 CNS = system: SF-268 CNS
A498 renal = system: A498 renal
HT29 colon = system: HT29 colon
DU-145 prostate = system: DU-145 prostate
MALME-3M melanoma = system: MALME-3M melanoma
TK-10 renal = system: TK-10 renal
RPMI-8226 leukemia = system: RPMI-8226 leukemia
HS 578T breast = system: HS 578T breast
BT-549 breast = system: BT-549 breast
SNB-75 CNS = system: SNB-75 CNS
M14 melanoma = system: M14 melanoma
T-47D breast = system: T-47D breast
LOX IMVI melanoma = system: LOX IMVI melanoma
HOP-62 NSCLC = system: HOP-62 NSCLC
786-0 renal = system: 786-0 renal
A549 NSCLC = system: A549 NSCLC
OVCAR-4 ovarian = system: OVCAR-4 ovarian
UACC-257 melanoma = system: UACC-257 melanoma
OVCAR-5 ovarian = system: OVCAR-5 ovarian
MDA-N = system: MDA-N
SK-OV-3 ovarian = system: SK-OV-3 ovarian
HOP-92 NSCLC = system: HOP-92 NSCLC
KM12 colon = system: KM12 colon
MDA-MB-231 breast = system: MDA-MB-231 breast
NCI-H460 lung = system: NCI-H460 lung
K-562 leukemia = system: K-562 leukemia
HCT-116 colon = system: HCT-116 colon
IGROV1 ovarian = system: IGROV1 ovarian
PC-3 prostate = system: PC-3 prostate
MDA-MB-435 = system: MDA-MB-435
SK-MEL-5 melanoma = system: SK-MEL-5 melanoma
NCI/ADR-RES ovarian = system: NCI/ADR-RES ovarian
COLO 205 colon = system: COLO 205 colon
SK-MEL-28 melanoma = system: SK-MEL-28 melanoma
CCRF-CEM leukemia = system: CCRF-CEM leukemia
SF-539 CNS = system: SF-539 CNS

Q: How did the TGI (SNB-19 CNS) turn out when `CC1=NN(c2cccc(Cl)c2)C2(C1)C(Cl)C(=O)N2c1nc2ccccc2s1` (configuration not stated) was run?
A: > 100 µM

Q: What about the TGI (SW-620 colon) of the same molecule?
A: > 100 µM

Q: What about the TGI (OVCAR-8 ovarian) of the same molecule?
A: > 100 µM

Q: And the TGI (SR leukemia)?
A: 34.3 µM

Q: What about the TGI (NCI-H226 lung) of the same molecule?
A: 43.4 µM

Q: And the TGI (SF-295 CNS)?
A: 98.1 µM

Q: And the TGI (MCF7 breast)?
A: > 100 µM

Q: What about the TGI (NCI-H522 lung) of the same molecule?
A: 56.6 µM

Q: What about the TGI (EKVX NSCLC) of the same molecule?
A: > 100 µM

Q: And the TGI (UACC-62 melanoma)?
A: > 100 µM

Q: And the TGI (SN12C renal)?
A: 82.3 µM

Q: And the TGI (U251 CNS)?
A: 72.5 µM

Q: And the TGI (ACHN renal)?
A: > 100 µM

Q: And the TGI (HL-60(TB) leukemia)?
A: 53.4 µM

Q: What about the TGI (UO-31 renal) of the same molecule?
A: 51.1 µM

Q: And the TGI (HCT-15 colon)?
A: > 100 µM

Q: And the TGI (CAKI-1 renal)?
A: > 100 µM

Q: And the TGI (OVCAR-3 ovarian)?
A: 66.5 µM

Q: What about the TGI (HCC-2998 colon) of the same molecule?
A: > 100 µM

Q: And the TGI (RXF 393 renal)?
A: 59.1 µM

Q: What about the TGI (MOLT-4 leukemia) of the same molecule?
A: 38.6 µM

Q: What about the TGI (SK-MEL-2 melanoma) of the same molecule?
A: 38.7 µM

Q: What about the TGI (NCI-H23 lung) of the same molecule?
A: 49.5 µM

Q: And the TGI (SF-268 CNS)?
A: > 100 µM

Q: And the TGI (A498 renal)?
A: > 100 µM

Q: What about the TGI (HT29 colon) of the same molecule?
A: > 100 µM

Q: And the TGI (DU-145 prostate)?
A: > 100 µM

Q: What about the TGI (MALME-3M melanoma) of the same molecule?
A: > 100 µM

Q: And the TGI (TK-10 renal)?
A: > 100 µM

Q: What about the TGI (RPMI-8226 leukemia) of the same molecule?
A: 41.6 µM

Q: And the TGI (HS 578T breast)?
A: > 100 µM

Q: What about the TGI (BT-549 breast) of the same molecule?
A: 85.9 µM

Q: And the TGI (SNB-75 CNS)?
A: 67.1 µM

Q: What about the TGI (M14 melanoma) of the same molecule?
A: 64.1 µM

Q: What about the TGI (T-47D breast) of the same molecule?
A: 97.4 µM

Q: And the TGI (LOX IMVI melanoma)?
A: 34.9 µM

Q: What about the TGI (HOP-62 NSCLC) of the same molecule?
A: 64.8 µM

Q: And the TGI (786-0 renal)?
A: 50.6 µM

Q: What about the TGI (A549 NSCLC) of the same molecule?
A: 76.2 µM

Q: What about the TGI (OVCAR-4 ovarian) of the same molecule?
A: > 100 µM

Q: And the TGI (UACC-257 melanoma)?
A: > 100 µM

Q: What about the TGI (OVCAR-5 ovarian) of the same molecule?
A: > 100 µM

Q: And the TGI (MDA-N)?
A: > 100 µM

Q: What about the TGI (SK-OV-3 ovarian) of the same molecule?
A: 69.1 µM

Q: What about the TGI (HOP-92 NSCLC) of the same molecule?
A: 75.6 µM

Q: And the TGI (KM12 colon)?
A: > 100 µM

Q: What about the TGI (MDA-MB-231 breast) of the same molecule?
A: 41.2 µM

Q: What about the TGI (NCI-H460 lung) of the same molecule?
A: > 100 µM

Q: What about the TGI (K-562 leukemia) of the same molecule?
A: 48.4 µM

Q: And the TGI (HCT-116 colon)?
A: 40.4 µM

Q: And the TGI (IGROV1 ovarian)?
A: > 100 µM

Q: And the TGI (PC-3 prostate)?
A: 63.8 µM

Q: What about the TGI (MDA-MB-435) of the same molecule?
A: > 100 µM

Q: And the TGI (SK-MEL-5 melanoma)?
A: 44.4 µM

Q: What about the TGI (NCI/ADR-RES ovarian) of the same molecule?
A: 69.7 µM

Q: What about the TGI (COLO 205 colon) of the same molecule?
A: 31.9 µM

Q: Which results are given for `O=c1c2ccccc2oc2c1ccc1ncccc12`?
A: TGI (SW-620 colon): 42 µM; TGI (OVCAR-8 ovarian): > 100 µM; TGI (SR leukemia): > 100 µM; TGI (NCI-H226 lung): 38.9 µM; TGI (SF-295 CNS): 45.9 µM; TGI (MCF7 breast): 27.8 µM; TGI (NCI-H522 lung): 59.1 µM; TGI (EKVX NSCLC): 96.9 µM; TGI (UACC-62 melanoma): 73.6 µM; TGI (SN12C renal): > 100 µM; TGI (ACHN renal): 23.1 µM; TGI (SK-MEL-28 melanoma): > 100 µM; TGI (HL-60(TB) leukemia): > 100 µM; TGI (UO-31 renal): 40.9 µM; TGI (HCT-15 colon): > 100 µM; TGI (CAKI-1 renal): 34.5 µM; TGI (OVCAR-3 ovarian): 89.6 µM; TGI (HCC-2998 colon): > 100 µM; TGI (RXF 393 renal): 44.6 µM; TGI (MOLT-4 leukemia): > 100 µM; TGI (SK-MEL-2 melanoma): > 100 µM; TGI (NCI-H23 lung): > 100 µM; TGI (SF-268 CNS): 78.2 µM; TGI (A498 renal): 25 µM; TGI (HT29 colon): > 100 µM; TGI (DU-145 prostate): 59.5 µM; TGI (MALME-3M melanoma): 52.2 µM; TGI (TK-10 renal): 32.6 µM; TGI (RPMI-8226 leukemia): > 100 µM; TGI (HS 578T breast): 34.8 µM; TGI (BT-549 breast): 63 µM; TGI (SNB-75 CNS): 95.5 µM; TGI (CCRF-CEM leukemia): > 100 µM; TGI (T-47D breast): 31.2 µM; TGI (SF-539 CNS): 53.3 µM; TGI (LOX IMVI melanoma): 43.8 µM; TGI (HOP-62 NSCLC): 78.1 µM; TGI (786-0 renal): 48.9 µM; TGI (A549 NSCLC): 22.2 µM; TGI (OVCAR-4 ovarian): 46.1 µM; TGI (UACC-257 melanoma): 70.6 µM; TGI (OVCAR-5 ovarian): 16.1 µM; TGI (MDA-N): > 100 µM; TGI (SK-OV-3 ovarian): 34.4 µM; TGI (HOP-92 NSCLC): 59.3 µM; TGI (KM12 colon): > 100 µM; TGI (MDA-MB-231 breast): > 100 µM; TGI (NCI-H460 lung): 17 µM; TGI (K-562 leukemia): > 100 µM; TGI (HCT-116 colon): 45.2 µM; TGI (IGROV1 ovarian): 26.4 µM; TGI (PC-3 prostate): > 100 µM; TGI (MDA-MB-435): > 100 µM; TGI (SK-MEL-5 melanoma): 28 µM; TGI (NCI/ADR-RES ovarian): 36.3 µM; TGI (COLO 205 colon): 94.4 µM
